We go through six compounds from US20250009777A1 (priority 2021, published 2025).

One series has as its system SARS-CoV-2 Wuhan strain. Put plainly: Antiviral activity against SARS-CoV-2 Wuhan strain, same manner as Example 1. In kind it is cell-based. Conditions: for SI: CC50 relative to EC50.
A short description of series [1]: Cytotoxicity (CC50) of structural analogs, Table 4. In kind it is cell-based. Conditions: cell line not stated. On the procedure:
Measurement of the antiviral activity was conducted in the same manner as Example 1. […] Among these compounds, compounds (A2), (A4) and (A6) had satisfactory differences in the ECso and CCso concentration levels, indicating particular promise as antiviral agents.

In series [2] the test system is AG129 mouse-adapted DENV2. In kind it is in vivo, mice. Particulars: for Survival rate: death = bodyweight below 70%; for day post virus infection until which all of the mice survived: death = bodyweight below 80% of initial, FIG. 2A.
A further series has as its system ZIKV. Put plainly: microbe, parasite or virus in culture. In kind it is cell-based. Conditions: Zika virus, BHK-21, 72 h.
The test system of another series is HCoV-229E. Kind of series: microbe, parasite or virus in culture. In kind it is cell-based. Conditions: Human coronavirus 229E, MRC5.
For another series, the system named is CHIKV. Kind of series: microbe, parasite or virus in culture. In kind it is cell-based. Conditions: Chikungunya virus, BHK-21.
Another series relates to YFV. Kind of series: microbe, parasite or virus in culture. In kind it is cell-based. Particulars: Yellow fever virus, BHK-21, 72 h.
A short description of series [3]: in vitro. Conditions: Syrian hamster.
In the next series the test system is HCoV-OC43. Kind of series: microbe, parasite or virus in culture. In kind it is cell-based, Human Coronavirus. Conditions: Betacoronavirus 1, OC43, MRC5.
A further series relates to DENV3. Kind of series: microbe, parasite or virus in culture. In kind it is cell-based. Conditions: Dengue virus, DENV3, BHK-21, 120 h.
Another series deals with DENV4. Kind of series: microbe, parasite or virus in culture. In kind it is cell-based. Conditions: Dengue virus, DENV4, BHK-21, 120 h.
A short description of series [4]: in vitro. Particulars: human.
In series [5] the test system is DENV2. Put plainly: microbe, parasite or virus in culture. In kind it is cell-based. Particulars: Dengue virus, DENV2, BHK-21, 96 h.
Another series deals with WNV. Put plainly: microbe, parasite or virus in culture. Particulars: West Nile virus, BHK-21, 72 h. In kind it is cell-based.
A further series concerns JEV. Kind of series: microbe, parasite or virus in culture. In kind it is cell-based. Conditions: Japanese encephalitis virus, BHK-21, 72 h.
In the next series the test system is DENV1. Put plainly: microbe, parasite or virus in culture. Conditions: Dengue virus, DENV1, BHK-21, 120 h. In kind it is cell-based.
The test system of series [6] is coronaviruses, flaviviruses and togaviruses. In kind it is cell-based.
Series [7] has as its system DENV2. Kind of series: Library screening for inhibition of cell death of flavivirus-infected cells. Particulars: compound library screening. In kind it is cell-based, dengue virus. How it is done: Using the compounds of a compound library based on nucleic acid compounds held by the Center for Research and Education on Drug Discovery, Hokkaido University, National University Corporation as test samples, screening was conducted for compounds having an effect in inhibiting cell death of cells infected with a flavivirus. DENV2 was used as the flavivirus.

[8] abbreviates: Severe acute respiratory syndrome coronavirus 2.

Where two headings read alike, the source gives them in different places.

For orientation: EC50 means the concentration at which the effect is half-maximal. The low end stands for higher potency in that assay, the high end for lower potency in that assay. Take “2′,3′-O-isopropylidene-5′-O-isobutyryl-2-thiouridine [Compound A6]”: in the series on SARS-CoV-2 Wuhan strain, it took 3.93 µM to reach a half-maximal effect (EC50) and the SI worked out at 4.9. The CC50 in series [1] came to 19.4 µM.

In the series on SARS-CoV-2 Wuhan strain, “2′,3′-O-isopropylidene-5′-O-propynyl-2-thiouridine [Compound A5]” gave an EC50 of 7.56 µM and an SI of 1.6. This compound showed a CC50 in series [1] of 11.9 µM.

With `O=c1ccn([C@@H]2O[C@H](CO)[C@@H](O)[C@H]2O)c(=S)[nH]1` [2-thiouridine], the “survival rate for the virus-infected mice” value in series [2] (50 mg/kg (n=8) and 150 mg/kg (n=9) groups compared with vehicle, in words) was “increased in a dosage-dependent manner”. In addition, the Survival rate is listed as 100% in [2] (50 mg/kg oral twice per day, n = 8, day 0 post infection); 100% in [2] (50 mg/kg oral twice per day, n = 8, day 1 post infection); 100% in series [2] (50 mg/kg oral twice per day, n = 8, day 2 post infection); 100% in series [2] (50 mg/kg oral twice per day, n = 8, day 3 post infection); 100% in [2] (50 mg/kg oral twice per day, n = 8, day 4 post infection); 100% in [2] (50 mg/kg oral twice per day, n = 8, day 5 post infection). Moreover, the Survival rate was determined as 100% in series [2] (50 mg/kg oral twice per day, n = 8, day 6 post infection); 100% in [2] (50 mg/kg oral twice per day, n = 8, day 7 post infection); 100% in series [2] (50 mg/kg oral twice per day, n = 8, day 8 post infection); 100% in [2] (50 mg/kg oral twice per day, n = 8, day 9 post infection); 100% in series [2] (50 mg/kg oral twice per day, n = 8, day 10 post infection); 75% in series [2] (50 mg/kg oral twice per day, n = 8, day 11 post infection). The Survival rate in series [2] (50 mg/kg oral twice per day, n = 8, day 12 post infection) is 50%; in series [2] (50 mg/kg oral twice per day, n = 8, day 13 post infection) it was 37.5%; in series [2] (50 mg/kg oral twice per day, n = 8, day 14 post infection), 37.5%; in [2] (50 mg/kg oral twice per day, n = 8, day 15 post infection), 0%; in [2] (150 mg/kg oral twice per day, n = 9, day 0 post infection), 100%; in [2] (150 mg/kg oral twice per day, n = 9, day 1 post infection), 100%. Also, the Survival rate was determined as 100% in series [2] (150 mg/kg oral twice per day, n = 9, day 2 post infection); 100% in series [2] (150 mg/kg oral twice per day, n = 9, day 3 post infection); 100% in series [2] (150 mg/kg oral twice per day, n = 9, day 4 post infection); 100% in [2] (150 mg/kg oral twice per day, n = 9, day 5 post infection); 100% in series [2] (150 mg/kg oral twice per day, n = 9, day 6 post infection); 100% in series [2] (150 mg/kg oral twice per day, n = 9, day 7 post infection). Moreover, the Survival rate in series [2] (150 mg/kg oral twice per day, n = 9, day 8 post infection) amounted to 100%; in series [2] (150 mg/kg oral twice per day, n = 9, day 9 post infection) it was 100%; in [2] (150 mg/kg oral twice per day, n = 9, day 10 post infection), 100%; in series [2] (150 mg/kg oral twice per day, n = 9, day 11 post infection), 88.89%; in series [2] (150 mg/kg oral twice per day, n = 9, day 12 post infection) it was 88.89%; in series [2] (150 mg/kg oral twice per day, n = 9, day 13 post infection) it was 66.67%. Also, the Survival rate in [2] (150 mg/kg oral twice per day, n = 9, day 14 post infection) was found to be 66.67%; in series [2] (150 mg/kg oral twice per day, n = 9, day 15 post infection), 66.67%; in series [2] (150 mg/kg oral twice per day, n = 9, day 16 post infection), 66.67%. Besides, the “day post virus infection until which all of the mice survived” value in [2] (50 mg/kg orally twice per day for 5 days, n=3) worked out at 12 days; in series [2] (150 mg/kg orally twice per day for 5 days, n=4) it was 15 days. The EC50 stood at 5 µM with ZIKV; 0.77 µM with HCoV-229E; 8.2 µM in the series with CHIKV; 2.9 µM with YFV; 13 µM with HCoV-OC43; 2 µM in the series on DENV3. The EC50 with DENV4 was 1.7 µM; with DENV2 [5], 1.5 µM; with WNV, 5.3 µM; in the series on JEV, 4.8 µM; in the series on DENV1 it was 2.4 µM. Further, the CC50 in “in vitro [3]” and in the series “in vitro [4]” was more than 50 µM each time. Also, in series [6], the “relative viral RNA level” value is reported as “decreased”. Also, the “antiviral activity (inhibiting cell death of infected cells)” value with DENV2 [7] is given as “exhibited antiviral activity”.

For the compound `O=c1ccn([C@@H]2O[C@H](CO)[C@@H](O)[C@H]2O)c(=[Se])[nH]1` [Compound A2, 2-selenouridine], the SI in the series with SARS-CoV-2 Wuhan strain is more than 2.7. This compound registered a concentration giving a half-maximal response (EC50) in the series on SARS-CoV-2 Wuhan strain (setting [8]) of 7.37 µM. For the same compound, in [1], the CC50 was more than 20 µM.

As for `CSc1nc(=O)ccn1C1O[C@H](CO)[C@@H](O)[C@H]1O` (stereo partly drawn) [Compound A3], the SI with SARS-CoV-2 Wuhan strain is recorded as 1.2. In the series with SARS-CoV-2 Wuhan strain (setting [8]), the 50% effective concentration (EC50) was 4.67 µM. The same compound had a CC50 in series [1] of 5.48 µM.

The compound `O=c1ccn(C2O[C@H](CO)[C@@H](O)[C@H]2O)c(=NO)[nH]1` (stereo partly drawn) [Compound A4] displayed an SI in the series with SARS-CoV-2 Wuhan strain of 7.5. The compound also yielded an EC50 with SARS-CoV-2 Wuhan strain (setting [8]) of 0.81 µM. The compound further returned a CC50 in [1] of 6.04 µM.
